# Results from US9216999B2, “Substituted pyrrolo[2,3-h][1,6]naphthyridines and compositions thereof as JAK inhibitors” (priority 2011, dated 2015).
# Tests used:
# [1] = murine asthma model; cited from earlier work
# [2] = clinical tests; cited from earlier work
# [3] = monkey model of kidney transplantation; cited from earlier work
# [4] = clinical tests; cited from earlier work; remark: listed apart in the source
# JAK2 = JAK2 (Homo sapiens (Human), UniProt O60674); test: JAK2 enzyme assay (Assay Example^b 1)
# JAK3 = JAK3 (Homo sapiens (Human), UniProt P52333); test: JAK3 enzyme assay (Assay Example^b 1)
# Sequence of JAK3 (P52333 whole entry): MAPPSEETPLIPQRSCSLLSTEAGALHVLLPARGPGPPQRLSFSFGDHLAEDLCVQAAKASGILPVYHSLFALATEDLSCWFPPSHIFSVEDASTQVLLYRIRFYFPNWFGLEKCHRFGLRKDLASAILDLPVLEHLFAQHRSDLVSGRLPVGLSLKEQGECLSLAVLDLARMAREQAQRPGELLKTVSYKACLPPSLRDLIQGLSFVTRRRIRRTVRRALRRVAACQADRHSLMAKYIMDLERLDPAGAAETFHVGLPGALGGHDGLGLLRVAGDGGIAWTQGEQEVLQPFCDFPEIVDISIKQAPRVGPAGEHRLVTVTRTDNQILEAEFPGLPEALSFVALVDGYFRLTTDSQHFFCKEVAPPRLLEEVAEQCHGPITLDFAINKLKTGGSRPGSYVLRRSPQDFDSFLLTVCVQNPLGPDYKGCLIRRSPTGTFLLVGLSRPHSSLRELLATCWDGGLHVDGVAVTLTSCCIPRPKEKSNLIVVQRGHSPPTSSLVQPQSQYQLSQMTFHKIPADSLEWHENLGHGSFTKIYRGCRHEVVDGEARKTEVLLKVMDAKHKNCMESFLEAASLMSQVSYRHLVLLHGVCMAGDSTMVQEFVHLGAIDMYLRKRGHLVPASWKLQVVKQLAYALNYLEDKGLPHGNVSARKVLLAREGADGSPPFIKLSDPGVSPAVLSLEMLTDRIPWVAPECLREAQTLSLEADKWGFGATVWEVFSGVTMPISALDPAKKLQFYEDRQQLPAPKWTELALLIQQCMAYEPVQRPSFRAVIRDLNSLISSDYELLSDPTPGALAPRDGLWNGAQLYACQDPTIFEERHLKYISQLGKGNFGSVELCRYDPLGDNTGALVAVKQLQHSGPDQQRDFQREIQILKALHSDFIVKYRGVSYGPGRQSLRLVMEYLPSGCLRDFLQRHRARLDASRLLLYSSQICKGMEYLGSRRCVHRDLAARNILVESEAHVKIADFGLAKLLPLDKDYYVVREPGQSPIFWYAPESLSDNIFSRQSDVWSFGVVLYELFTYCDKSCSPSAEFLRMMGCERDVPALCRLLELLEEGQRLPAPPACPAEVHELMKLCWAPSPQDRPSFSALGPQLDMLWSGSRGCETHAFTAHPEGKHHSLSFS
# JAK1 = JAK1 (Homo sapiens (Human), UniProt P23458); test: JAK1 enzyme assay (Assay Example^b 1)
# Tyk2 = Tyk2 (Homo sapiens (Human), UniProt P29597); test: Tyk2 enzyme assay (Assay Example^b 1)
# Sequence of Tyk2 (P29597 whole entry): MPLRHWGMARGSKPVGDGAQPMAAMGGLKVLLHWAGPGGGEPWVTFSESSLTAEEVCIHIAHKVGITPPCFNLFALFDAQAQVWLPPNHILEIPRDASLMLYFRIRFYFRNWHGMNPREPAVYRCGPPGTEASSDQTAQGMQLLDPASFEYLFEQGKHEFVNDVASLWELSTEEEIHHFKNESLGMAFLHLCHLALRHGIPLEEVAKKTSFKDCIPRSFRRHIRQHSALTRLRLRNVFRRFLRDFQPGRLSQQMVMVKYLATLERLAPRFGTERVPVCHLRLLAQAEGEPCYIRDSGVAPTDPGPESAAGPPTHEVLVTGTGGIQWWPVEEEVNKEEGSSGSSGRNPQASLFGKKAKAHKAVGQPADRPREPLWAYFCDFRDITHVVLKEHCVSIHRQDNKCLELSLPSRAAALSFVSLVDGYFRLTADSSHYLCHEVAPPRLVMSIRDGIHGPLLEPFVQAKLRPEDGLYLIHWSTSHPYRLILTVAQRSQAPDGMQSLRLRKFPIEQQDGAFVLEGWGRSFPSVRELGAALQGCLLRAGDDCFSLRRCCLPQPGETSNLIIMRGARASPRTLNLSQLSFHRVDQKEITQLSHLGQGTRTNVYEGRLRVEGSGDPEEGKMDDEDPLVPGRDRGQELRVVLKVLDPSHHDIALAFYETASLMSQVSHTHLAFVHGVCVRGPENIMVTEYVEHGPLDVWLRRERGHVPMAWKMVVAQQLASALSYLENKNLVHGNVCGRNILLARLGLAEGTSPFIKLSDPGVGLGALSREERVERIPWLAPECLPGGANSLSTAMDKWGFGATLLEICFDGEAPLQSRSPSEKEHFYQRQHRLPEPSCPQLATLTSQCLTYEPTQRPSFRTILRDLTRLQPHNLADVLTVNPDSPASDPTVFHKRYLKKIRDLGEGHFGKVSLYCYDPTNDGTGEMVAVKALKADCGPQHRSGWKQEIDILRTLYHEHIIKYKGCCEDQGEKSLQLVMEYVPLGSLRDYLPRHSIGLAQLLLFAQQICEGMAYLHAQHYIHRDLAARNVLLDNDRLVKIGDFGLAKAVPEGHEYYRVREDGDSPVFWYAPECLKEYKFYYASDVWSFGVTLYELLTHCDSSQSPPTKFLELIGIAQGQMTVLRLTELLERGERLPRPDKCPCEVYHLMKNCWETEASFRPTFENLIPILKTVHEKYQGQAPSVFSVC
# [5] = IC50 (μM) JAK2, Table^b 79, ATP 100 μM
# [6] = IC50 (μM) JAK3, Table^b 78, ATP 100 μM
# [7] = IC50 (μM) JAK1, Table^b 78, ATP 100 μM
# [8] = IC50 (μM) TYK2, Table^b 79, ATP 100 μM
# [9] = IC50 (μM) JAK2, Table^b 80, ATP 100 μM
# [10] = IC50 (μM) JAK3, Table^b 80, ATP 100 μM
# [11] = IC50 (μM) JAK1, Table^b 80, ATP 100 μM
# [12] = IC50 (μM) TYK2, Table^b 80, ATP 100 μM
Structure (SMILES),"IC50 (JAK2; IC50 (μM) JAK2, ATP 100 μM) [µM]","IC50 (JAK3; IC50 (μM) JAK3, ATP 100 μM) [µM]","IC50 (JAK1; IC50 (μM) JAK1, ATP 100 μM) [µM]","IC50 (Tyk2; IC50 (μM) TYK2, ATP 100 μM) [µM]",IC50 (JAK2; [9]) [µM],IC50 (JAK3; [10]) [µM],IC50 (JAK1; [11]) [µM],IC50 (Tyk2; [12]) [µM],other results
"C[C@@H]1CCN(C(=O)CC#N)C[C@@H]1N(C)c1ncnc2[nH]ccc12 [CP-690,550]",–,–,–,–,–,–,–,–,airway inflammation [1]: suppressed; pathology of rheumatoid arthritis [2]: improved the pathology; rejection [3]: suppressed rejection; pathology of psoriasis [4]: improved the pathology
O=c1[nH]c(=O)n(C2CCN(CCNC3CCNCC3)CC2)c2c1cnc1[nH]ccc12 [compound 111],> 1,> 1,0.44,> 1,–,–,–,–,–
C[C@@H]1CCN(C(=O)CC(F)(F)F)C[C@@H]1n1ccc(=O)c2cnc3[nH]ccc3c21 (racemic) [compound 9],–,–,–,–,–,–,–,–,IC50 (JAK2; [5]): 0.0094 µM; IC50 (JAK3; [6]): 0.01 µM; IC50 (JAK1; [7]): 0.004 µM; IC50 (Tyk2; [8]): 0.15 µM
O=c1ccn(C2C3CC4CC2CC(O)(C4)C3)c2c1cnc1[nH]ccc12 (stereo not shown) [compound 106],0.25,0.61,0.047,0.38,–,–,–,–,–
O=c1ncn(C2CCCCC2)c2c1cnc1[nH]ccc12 [compound 13],–,–,–,–,–,–,–,–,IC50 (JAK2; [5]): 0.56 µM; IC50 (JAK3; [6]): 1.3 µM; IC50 (JAK1; [7]): 0.042 µM; IC50 (Tyk2; [8]): > 1 µM
O=c1[nH]c(=O)n(C2CCN(Cc3ccc(Br)s3)CC2)c2c1cnc1[nH]ccc12 [compound 89],> 1,> 1,0.011,> 1,–,–,–,–,–
O=c1ccn(C2C3CC4CC2CC(O)(C4)C3)c2c1cnc1[nH]ccc12 (stereo not shown) [compound 107],0.6,0.41,0.31,> 1,–,–,–,–,–
C[C@@H]1CCN(Cc2cccc(C#N)c2)C[C@@H]1n1ccc(=O)c2cnc3[nH]ccc3c21 (racemic) [compound 42],–,–,–,–,0.15,0.093,0.016,> 1,–
C[C@@H]1CCN(C(=O)CC#N)C[C@@H]1n1ccc(=O)c2cnc3[nH]ccc3c21 (racemic) [compound 7],–,–,–,–,–,–,–,–,IC50 (JAK2; [5]): 0.004 µM; IC50 (JAK3; [6]): 0.0032 µM; IC50 (JAK1; [7]): 0.0017 µM; IC50 (Tyk2; [8]): 0.06 µM
C[C@@H]1CCN(C(=O)CC2CC2)C[C@@H]1n1ccc(=O)c2cnc3[nH]ccc3c21 (racemic) [compound 8],–,–,–,–,–,–,–,–,IC50 (JAK2; [5]): 0.075 µM; IC50 (JAK3; [6]): 0.041 µM; IC50 (JAK1; [7]): 0.026 µM; IC50 (Tyk2; [8]): 1.5 µM
"N#CCn1c(=O)c2cnc3[nH]ccc3c2n(C2CCCCC2)c1=O [Synthetic Example^b 137, 2-(1-Cyclohexyl-2,4-dioxo-1H-pyrrolo[3′,2′:5,6]pyrido[4,3-d]pyrimidin-3(2H,4H,7H)-yl)acetonitrile]",> 1,0.91,0.057,> 1,–,–,–,–,–
O=C1NCc2cnc3[nH]ccc3c2N1C1CCNCC1 [compound 68],–,–,–,–,2.4,9.1,0.5,> 1,–
"O=c1ccn(C2CCN(Cc3ccc(C(F)(F)F)cc3)CC2)c2c1cnc1[nH]ccc12 [Synthetic Example^b 56, 1-{1-[4-(trifluoromethyl)benzyl]piperidin-4-yl}-1H-pyrrolo[2,3-h][1,6]naphthyridin-4(7H)-one]",–,–,–,–,0.24,> 1,0.019,> 1,–
"Cn1c(=O)c2cnc3[nH]ccc3c2n(C2CCCCC2)c1=O [Synthetic Example^b 138, 1-cyclohexyl-3-methyl-1H-pyrrolo[3′,2′:5,6]pyrido[4,3-d]pyrimidine-2,4(3H,7H)-dione]",0.42,0.51,0.04,> 1,–,–,–,–,–
C[C@@H]1CCN(Cc2ccccc2)C[C@@H]1n1ccc(=O)c2cnc3[nH]cc(Br)c3c21 (racemic) [compound 21],–,–,–,–,1.3,0.82,0.56,> 1,–
O=C(c1ccc(Cl)s1)N1CCC(n2ccc(=O)c3cnc4[nH]ccc4c32)CC1 [compound 87],–,–,–,–,0.38,> 1,0.025,> 1,–
